Laboratory results reported in EP1147080B1 (Wyeth Holdings Corporation, priority 1999, dated 2000).

biological target: TNF-α converting enzyme (TACE) (Homo sapiens, UniProt P78536); test: Test procedure for measuring TACE inhibition (fluorescent peptidyl substrate); format: biochemical; settings: Table 1
Sequence (P78536 215-824): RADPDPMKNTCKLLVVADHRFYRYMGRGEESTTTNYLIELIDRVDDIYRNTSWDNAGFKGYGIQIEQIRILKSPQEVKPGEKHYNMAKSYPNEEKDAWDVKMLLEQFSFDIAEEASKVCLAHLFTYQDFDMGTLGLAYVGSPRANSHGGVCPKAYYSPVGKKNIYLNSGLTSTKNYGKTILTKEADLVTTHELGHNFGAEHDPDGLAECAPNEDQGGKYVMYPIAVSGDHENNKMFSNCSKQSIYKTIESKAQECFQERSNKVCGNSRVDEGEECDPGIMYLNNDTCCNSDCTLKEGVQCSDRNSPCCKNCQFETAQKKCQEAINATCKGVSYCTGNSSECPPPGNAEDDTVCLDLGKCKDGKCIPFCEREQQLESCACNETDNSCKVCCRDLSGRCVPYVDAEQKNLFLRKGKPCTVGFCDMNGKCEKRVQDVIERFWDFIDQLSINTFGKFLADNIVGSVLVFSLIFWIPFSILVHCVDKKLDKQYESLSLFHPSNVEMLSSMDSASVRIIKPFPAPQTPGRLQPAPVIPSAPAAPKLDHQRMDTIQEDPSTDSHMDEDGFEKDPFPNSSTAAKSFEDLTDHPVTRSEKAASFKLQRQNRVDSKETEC

Point of comparison: `CC#CCOc1ccc([S+]([O-])C(CCCCNC(=O)Cc2csc3ccccc23)C(=O)NO)cc1` (stereo not drawn) [Example 32, 6-(2-Benzo[b]thiophen-3-yl-acetylamino)-2-(4-but-2-ynyloxy-benzenesulfinyl)-hexanoic acid hydroxyamide], IC50 46.8 nM. Against it:
- CC#CCOc1ccc(S(=O)(=O)C(CCCCNC(=O)CN2C(=O)c3ccccc3C2=O)C(=O)NO)cc1 (stereo not drawn) [Example 36, 2-(4-But-2-ynyloxy-benzenesulfonyl)-6-[2-(1,3-dioxo-1,3-dihydro-isoindol-2-yl)-acetylamino]-hexanoic acid hydroxyamide] — 2.8-fold lower, 16.8 nM
- CC#CCOc1ccc(S(=O)(=O)C(CCCCNC(=O)CNC(=O)c2nccc3ccccc23)C(=O)NO)cc1 (stereo not drawn) [Example 68, Isoquinoline-1-carboxylic acid {[5-(4-but-2-ynyloxy-benzenesulfonyl)-5-hydroxycarbamoyl-pentylcarbamoyl]-methyl}-amide] — 2.2-fold lower, 21.2 nM
- CC#CCOc1ccc(S(=O)(=O)C(CCCCNC(=O)CNC(=O)Cc2csc3ccccc23)C(=O)NO)cc1 (stereo not drawn) [Example 69] — 1.6-fold lower, 29.2 nM
- CC#CCOc1ccc(SC(CCCCNC(=O)CNC(=O)c2nccc3ccccc23)C(=O)NO)cc1 (stereo not drawn) [Example 50, Isoquinoline-1-carboxylic acid {[5-(4-but-2-ynyloxy-phenylsulfanyl)-5-hydroxycarbamoylpentylcarbamoyl]-methyl}-amide] — within 1.5-fold, 35.9 nM
- CC#CCOc1ccc(S(=O)(=O)C(CCCCNC(=O)Cc2csc3ccccc23)C(=O)NO)cc1 (stereo not drawn) [Example 42, 6-(2-Benzo[b]thiophen-3-yl-acetylamino)-2-(4-but-2-ynyloxy-benzenesulfonyl)-hexanoic acid hydroxyamide] — 1.9-fold lower, 24.9 nM
- CC#CCOc1ccc(SC(CCCCNC(=O)c2nccc3ccccc23)C(=O)NO)cc1 (stereo not drawn) [Example 21, Isoquinoline-1-carboxylic acid [5-(4-but-2-ynyloxy-phenylsulfanyl)-5-hydroxycarbamoylpentyl]-amide] — 2.3-fold lower, 20.1 nM
- CC#CCOc1ccc(SC(CCCCNC(=O)CNC(=O)c2cccn2C)C(=O)NO)cc1 (stereo not drawn) [Example 51, 1-Methyl-1H-pyrrole-2-carboxylic acid ([5-(4-but-2-ynyloxy-phenylsulfanyl)-5-hydroxycarbamoyl-pentylcarbamoyl]-methyl}-amide] — 2.1-fold lower, 22.4 nM
- CC#CCOc1ccc([S+]([O-])C(CCCCNC(=O)Cc2c[nH]c3ccccc23)C(=O)NO)cc1 (stereo not drawn) [Example 33, 2-(4-But-2-ynyloxy-benzenesulfinyl)-6-(2-1H-indol-3-yl-acetylamino)-hexanoic acid hydroxyamide] — within 1.5-fold, 35.6 nM
- CC#CCOc1ccc([S+]([O-])C(CCCCNC(=O)c2cnc3ccccc3c2)C(=O)NO)cc1 (stereo not drawn) [Example 27, Quinoline-3-carboxylic acid [5-(4-but-2-ynyloxy-benzenesulfinyl)-5-hydroxycarbamoylpentyl]-amide] — within 1.5-fold, 46.3 nM
- CC#CCOc1ccc(SC(CCCCNC(=O)c2ccc3ccccc3n2)C(=O)NO)cc1 (stereo not drawn) [Example 14, Quinoline-2-carboxylic acid [5-(4-but-2-ynyloxy-phenylsulfanyl)-5-hydroxycarbamoylpentyl]-amide] — within 1.5-fold, 62.9 nM
- CC#CCOc1ccc(SC(CCCCNC(=O)CCCc2cccs2)C(=O)NO)cc1 (stereo not drawn) [Example 18, 2-(4-But-2-ynyloxy-phenylsulfanyl)-6-(4-thiophen-2-yl-butyrylamino)-hexanoic acid hydroxyamide] — within 1.5-fold, 36.9 nM
- CC#CCOc1ccc(SC(CCCCNC(=O)CNC(=O)C(c2ccccc2)c2ccccc2)C(=O)NO)cc1 (stereo not drawn) [Example 49, 2-(4-But-2-ynyloxy-phenylsulfanyl)-6-(2-diphenylacetylamino-acetylamino)-hexanoic acid hydroxyamide] — within 1.5-fold, 53.8 nM
- CC#CCOc1ccc(SC(CCCCNC(=O)CNC(=O)Cc2csc3ccccc23)C(=O)NO)cc1 (stereo not drawn) [Example 52] — 1.5-fold higher, 70.2 nM
- CC#CCOc1ccc([S+]([O-])C(CCCCNC(=O)CCCc2cccs2)C(=O)NO)cc1 (stereo not drawn) [Example 28, 2-(4-But-2-ynyloxy-benzenesulfinyl)-6-(4-thiophen-2-yl-butyrylamino)-hexanoic acid hydroxyamide] — 1.8-fold lower, 26.6 nM
- CC#CCOc1ccc([S+]([O-])C(CCCCNC(=O)CNC(=O)c2ccc3ccccc3n2)C(=O)NO)cc1 (stereo not drawn) [Example 54] — 1.7-fold lower, 27.2 nM
- CC#CCOc1ccc(SC(CCCCNC(=O)CNC(=O)c2cnc3ccccc3c2)C(=O)NO)cc1 (stereo not drawn) [Example 47, Quinoline-3-carboxylic acid {[5-(4-but-2-ynyloxy-phenylsulfanyl)-5-hydroxycarbamoyl-pentylcarbamoyl]-methyl}-amide] — 2.5-fold lower, 18.9 nM
- CC#CCOc1ccc(S(=O)(=O)C(CCCCNC(=O)CNC(=O)C2c3ccccc3Oc3ccccc32)C(=O)NO)cc1 (stereo not drawn) [Example 67, 9H-Xanthene-9-carboxylic acid {[5-(4-but-2-ynyloxy-benzenesulfonyl)-5-hydroxycarbamoyl-pentylcarbamoyl]-methyl}-amide] — within 1.5-fold, 34.8 nM
- CC#CCOc1ccc(S(=O)(=O)C(CCCCNC(=O)c2cnc3ccccc3c2)C(=O)NO)cc1 (stereo not drawn) [Example 38, Quinoline-3-carboxylic acid [5-(4-but-2-ynyloxy-benzenesulfonyl)-5-hydroxycarbamoylpentyl]-amide] — within 1.5-fold, 39.9 nM
- CC#CCOc1ccc(SC(CCCCNC(=O)CNC(=O)CN2C(=O)c3ccccc3C2=O)C(=O)NO)cc1 (stereo not drawn) [Example 45, 2-(4-But-2-ynyloxy-phenylsulfanyl)-6-{2-[2-(1,3-dioxo-1,3-dihydro-isoindol-2-yl)-acetylamino]-acetylamino}-hexanoic acid hydroxyamide] — 2.9-fold lower, 16.1 nM
- CC#CCOc1ccc(S(=O)(=O)C(CCCCNC(=O)CNC(=O)CN2C(=O)c3ccccc3C2=O)C(=O)NO)cc1 (stereo not drawn) [Example 63, 2-(4-But-2-ynyloxy-benzenesulfonyl)-6-{2-[2-(1,3-dioxo-1,3-dihydro-isoindol-2-yl)-acetyl-amino]-acetylamino}-hexanoic acid hydroxyamide] — 2.9-fold lower, 16.1 nM
- CC#CCOc1ccc(S(=O)(=O)C(CCCCNC(=O)CNC(=O)c2ccccc2CCc2ccccc2)C(=O)NO)cc1 (stereo not drawn) [Example 64, N-{[5-(4-But-2-ynyloxy-benzenesulfonyl)-5-hydroxycarbamoyl-pentylcarbamoyl]-methyl}-2-phenethyl-benzamide] — within 1.5-fold, 42 nM
- CC#CCOc1ccc(SC(CCCCNC(=O)CNC(=O)c2ccc3ccccc3n2)C(=O)NO)cc1 (stereo not drawn) [Example 44, Quinoline-2-carboxylic acid {[5-(4-but-2-ynyloxy-phenylsulfanyl)-5-hydroxycarbamoylpentylcarbamoyl]-methyl}-amide] — within 1.5-fold, 32.1 nM
- CC#CCOc1ccc([S+]([O-])C(CCCCNC(=O)c2ccccc2CCc2ccccc2)C(=O)NO)cc1 (stereo not drawn) [Example 25, N-[5-(4-But-2-ynyloxy-benzenesulfinyl)-5-hydroxycarbamoyl-pentyl]-2-phenethylbenzamide] — within 1.5-fold, 43.5 nM
- CC#CCOc1ccc(SC(CCCCNC(=O)CNC(=O)C2c3ccccc3Oc3ccccc32)C(=O)NO)cc1 (stereo not drawn) [Example 48, 9H-Xanthene-9-carboxylic acid {[5-(4-but-2-ynyloxy-phenylsulfanyl)-5-hydroxycarbamoylpentylcarbamoyl]-methyl}-amide] — 1.8-fold higher, 82.1 nM
- N-[5-(4-But-2-ynyloxy-benzenesulfonyl)-5-hydroxycarbamoyl-pentyl]-2-phenethyl-benzamide [Example 34] — 3.1-fold higher, 147 nM
- CC#CCOc1ccc(SC(CCCCNC(=O)c2cnc3ccccc3c2)C(=O)NO)cc1 (stereo not drawn) [Example 17, Quinoline-3-carboxylic acid [5-(4-but-2-ynyloxy-phenylsulfanyl)-5-hydroxycarbamoylpentyl]-amide] — within 1.5-fold, 43.7 nM
- CC#CCOc1ccc(SC(CCCCNC(=O)C2c3ccccc3Oc3ccccc32)C(=O)NO)cc1 (stereo not drawn) [Example 19, 9H-Xanthene-9-carboxylic acid [5-(4-but-2-ynyloxy-phenylsulfanyl)-5-hydroxycarbamoylpentyl]-amide] — within 1.5-fold, 43.3 nM
- CC#CCOc1ccc(SC(CCCCNC(=O)c2ccccc2CCc2ccccc2)C(=O)NO)cc1 (stereo not drawn) [Example 15, N-[5-(4-But-2-ynyloxy-phenylsulfanyl)-5-hydroxycarbamoyl-pentyl]-2-phenethylbenzamide] — 2.9-fold higher, 138 nM
- CC#CCOc1ccc(SC(CCCCNC(=O)Cc2ccc(Cl)c(Cl)c2)C(=O)NO)cc1 (stereo not drawn) [Example 16, 2-(4-But-2-ynyloxy-phenylsulfanyl)-6-[2-(3,4-dichloro-phenyl)-acetylamino]-hexanoic acid hydroxyamide] — 1.9-fold lower, 24.9 nM
- CC#CCOc1ccc(S(=O)(=O)C(CCCCNC(=O)CNC(=O)C(c2ccccc2)c2ccccc2)C(=O)NO)cc1 (stereo not drawn) [Example 62, 2-(4-But-2-ynyloxy-benzenesulfonyl)-6-(2-diphenylacetylamino-acetylamino)-hexanoic acid hydroxyamide] — within 1.5-fold, 31.9 nM
- CC#CCOc1ccc(S(=O)(=O)C(CCCCNC(=O)C(c2ccccc2)c2ccccc2)C(=O)NO)cc1 (stereo not drawn) [Example 40, 2-(4-But-2-ynyloxy-benzenesulfonyl)-6-diphenylacetylamino-hexanoic acid hydroxyamide] — within 1.5-fold, 59.1 nM
- CC#CCOc1ccc(S(=O)(=O)C(CCCCNC(=O)C2c3ccccc3Oc3ccccc32)C(=O)NO)cc1 (stereo not drawn) [Example 39, 9H-Xanthene-9-carboxylic acid [5-(4-but-2-ynyloxy-benzenesulfonyl)-5-hydroxycarbamoyl-pentyl]-amide] — within 1.5-fold, 65.1 nM
- CC#CCOc1ccc([S+]([O-])C(CCCCNC(=O)Cc2ccc(Cl)c(Cl)c2)C(=O)NO)cc1 (stereo not drawn) [Example 26, 2-(4-But-2-ynyloxy-benzenesulfinyl)-6-[2-(3,4-dichloro-phenyl)-acetylamino]-hexanoic acid hydroxyamide] — 1.6-fold lower, 29.9 nM
- CC#CCOc1ccc(SC(CCCCNC(=O)CN2C(=O)c3ccccc3C2=O)C(=O)NO)cc1 (stereo not drawn) [Example 13, 2-(4-But-2-ynyloxy-phenylsulfanyl)-6-[2-(1,3-dioxo-1,3-dihydroiso-indol-2-yl)-acetylamino]-hexanoic acid hydroxyamide] — within 1.5-fold, 42.5 nM
- CC#CCOc1ccc(S(=O)(=O)C(CCCCNC(=O)CNC(=O)Cc2c[nH]c3ccccc23)C(=O)NO)cc1 (stereo not drawn) [Example 70, 2-(4-But-2-ynyloxy-benzenesulfonyl)-6-[2-(2-1H-indol-3-yl-acetylamino)-acetylamino]-hexanoic acid hydroxyamide] — 1.9-fold higher, 88.1 nM
